Measurements from patent US20180042931A1 (Bayer Pharma Aktiengesellschaft, priority 2015, published 2018).

Assays:
[1] = tested on: constitutive active colorectal cancer cell (CRC) Wnt pathway; experiment: Cellular reporter assay, HCT116 cells stably transfected with Super TopFlash vector (HCT116-TOP), luciferase readout; format: cell-based; details: Homo sapiens, HCT-116, 36 hours incubation, luciferase expression, average or median values
Experimental: In order to discover and characterize small molecules which inhibit the constitutive active colorectal cancer cell (CRC) Wnt pathway, a cellular reporter assay was employed. The corresponding assay cell was generated by transfection of the colorectal cancer cell line HCT116 (ATCC, #CCL-247) with the Super TopFlash vector (Morin, Science 275, 1997, 1787-1790; Molenaar et al., Cell 86 (3), 1996, 391-399). The HCT116 cell line is cultivated at 37° C. and 5% CO2 in DMEM/F-12 (Life Technologies, #11320-074), supplemented with 2 mM glutamine, 20 mM HEPES, 1.4 mM pyruvate, 0.15% Na-bicarbonate and 10% foetal bovine serum (GIBCO, #10270), this cancer cell line is pathophysiological relevant since it carries a deletion of position S45 in the β-catenin gene, leading to constitutive active Wnt signaling. Stable transfectants were generated by cotransfection with pcDNA3 and selection of stable transfected cells with 1 mg/mL G418.
(§1) In preparation of the assay, the two cell lines were plated 24 hours before at 10000 cells per well of a 384 micro titre plate (MTP) in 30 μL growth medium. Selective inhibitory activity for small molecules on the mutated Wnt pathway was determined after parallel incubation of both (TOP and FOP) HCT116 reporter cell lines with a compound dilution series from 50 μM to 15 nM in steps of 3.16-fold dilutions in CAFTY buffer (130 mM NaCl, 5 mM KCl, 20 mM HEPES, 1 mM MgCl2, 5 mM NaHCO3, pH 7.4) containing 2 mM Ca^2+ and 0.01% BSA. The compounds were thereby serially prediluted in 100% DMSO and thereafter in addition 50 fold into the CAFTY compound dilution buffer (described above). From this dilution 10 μL were added to the cells in 30 μL growth medium and incubated for 36 hours at 37° C. and 5% CO2. Thereafter luciferase assay buffer (1:1 mixture of luciferase substrate buffer (20 mM Tricine, 2.67 mM MgSO4, 0.1 mM EDTA, 4 mM DTT, 270 μM Coenzyme A, 470 μM Luciferin, 530 μM ATP, ph adjusted to pH 7.8 with a sufficient volume of 5M NaOH) and Triton buffer (30 mL Triton X-100, 115 mL glycerol, 308 mg Dithiothreitol, 4.45 g Na2HPO4.2H2O, 3.03 g TRIS HCl, ad 1I H2O, pH 7.8) was added as equal volume to the compound solution on the cells to determine luciferase expression as a measure of Wnt signaling activity in a luminometer.

[2] = tested on: FOP control vector (randomized, non-functional sequence instead of functional TCF elements) in HCT116 cells; experiment: Control reporter assay, HCT116 cells stably transfected with FOP control vector (HCT116-FOP), luciferase readout; format: cell-based; details: Homo sapiens, HCT-116, 36 hours incubation, luciferase expression, dilution series up to 50 μM
Experimental: In a parallel approach, HCT116 cells were cotransfected with the FOP control vector and pcDNA3. The FOP vector is identical to the TOP construct, but it contains instead of functional TCF elements a randomized, non-functional sequence. For this transfection a stable transfected cell line was generated as well.
as §1

IC50 [1] [nM] | IC50 [2] [nM] | Structure (SMILES)
49 | ≥ 50000 | Nc1ncc(-c2ccc(NC(=O)c3ccc(OC(F)(F)F)c(NC(=O)CN4CCOCC4)c3)cc2)cn1 [Example 3, N-[4-(2-aminopyrimidin-5-yl)phenyl]-3-[(morpholin-4-ylacetyl)amino]-4-(trifluoromethoxy)-benzamide]
226 | 39000 | Nc1ncc(-c2ccc(NC(=O)c3ccc(OC(F)F)c(NC(=O)CN4CCOCC4)c3)cc2)cn1 [Example 28, N-[4-(2-aminopyrimidin-5-yl)phenyl]-4-(difluoromethoxy)-3-[(morpholin-4-ylacetyl)amino]benzamide]
557 | ≥ 50000 | Cc1ccc(-c2ccc(NC(=O)c3ccc(OC(F)(F)F)c(NC(=O)CN4CCOCC4)c3)cc2)cn1 [Example 13, N-[4-(6-methylpyridin-3-yl)phenyl]-3-[(morpholin-4-ylacetyl)amino]-4-(trifluoromethoxy)benzamide]
20.7 | ≥ 50000 | Cc1ccc(C(=O)Nc2ccc(-c3cccnc3F)cc2)cc1NC(=O)C1(N2CCOCC2)CC1 [Example 25, N-[4-(2-fluoropyridin-3-yl)phenyl]-4-methyl-3-({[1-(morpholin-4-yl)cyclopropyl]carbonyl}-amino)benzamide]
23 | ≥ 50000 | O=C(CN1CCOCC1)Nc1cc(C(=O)Nc2ccc(-c3cccnc3)cc2)ccc1OC1CC1 [Example 35, 4-(cyclopropyloxy)-3-[(morpholin-4-ylacetyl)amino]-N-[4-(pyridin-3-yl)phenyl]benzamide]
3110 | ≥ 50000 | COc1ccc(NC(=O)c2ccc(-c3cncnc3)cc2)cc1NC(=O)CN1CCOCC1 [Example 2, N-{4-methoxy-3-[(morpholin-4-ylacetyl)amino]phenyl}-4-(pyrimidin-5-yl)benzamide]
377 | ≥ 50000 | O=C(CN1CCOCC1)Nc1cc(C(=O)Nc2ccc(-c3ccc(CO)nc3)cc2)ccc1OC(F)(F)F [Example 14, N-{4-[6-(hydroxymethyl)pyridin-3-yl]phenyl}-3-[(morpholin-4-ylacetyl)amino]-4-(trifluoromethoxy)benzamide]
3.2 | ≥ 50000 | Nc1ncc(-c2ccc(NC(=O)c3ccc(OC(F)(F)F)c(NC(=O)C4(N5CCOCC5)CC4)c3)cc2)cn1 [Example 19, N-[4-(2-aminopyrimidin-5-yl)phenyl]-3-({[1-(morpholin-4-yl)cyclopropyl]carbonyl}amino)-4-(trifluoromethoxy)benzamide]
34.1 | ≥ 50000 | Cc1ccc(C(=O)Nc2ccc(-c3cccnc3)cc2)cc1NC(=O)C1(N2CCOCC2)CC1 [Example 24, 4-methyl-3-({[1-(morpholin-4-yl)cyclopropyl]carbonyl}amino)-N-[4-(pyridin-3-yl)phenyl]benzamide]
180 | ≥ 50000 | O=C(CN1CCOCC1)Nc1cc(C(=O)Nc2ccc(-c3cn[nH]c3)cc2)ccc1OC(F)(F)F [Example 6, 3-[(morpholin-4-ylacetyl)amino]-N-[4-(1H-pyrazol-4-yl)phenyl]-4-(trifluoromethoxy)benzamide]
545 | ≥ 50000 | COc1ccc(-c2ccc(NC(=O)c3ccc(OC(F)(F)F)c(NC(=O)CN4CCOCC4)c3)cc2)cn1 [Example 15, N-[4-(6-methoxypyridin-3-yl)phenyl]-3-[(morpholin-4-ylacetyl)amino]-4-(trifluoromethoxy)benzamide]
117 | 41500 | Cc1ncccc1-c1ccc(NC(=O)c2ccc(OC(F)(F)F)c(NC(=O)CN3CCOCC3)c2)cc1 [Example 16, N-[4-(2-methylpyridin-3-yl)phenyl]-3-[(morpholin-4-ylacetyl)amino]-4-(trifluoromethoxy)benzamide]
2660 | 32000 | O=C(CN1CCOCC1)Nc1cc(C(=O)Nc2ccc(-c3cnc(C(F)(F)F)nc3)cc2)ccc1OC(F)(F)F [Example 12, 3-[(morpholin-4-ylacetyl)amino]-4-(trifluoromethoxy)-N-{4-[2-(trifluoromethyl)pyrimidin-5-yl]phenyl}benzamide]
31.8 | 38500 | CN1CCN(CC(=O)Nc2cc(C(=O)Nc3ccc(-c4cccnc4F)cc3)ccc2OC(F)(F)F)CC1 [Example 31, N-[4-(2-fluoropyridin-3-yl)phenyl]-3-{[(4-methylpiperazin-1-yl)acetyl]amino}-4-(trifluoromethoxy)benzamide]
25.3 | 28000 | CN1CCN(CC(=O)Nc2cc(C(=O)Nc3ccc(-c4ccc(N)nc4)cc3)ccc2OC(F)(F)F)CC1 [Example 34, N-[4-(6-aminopyridin-3-yl)phenyl]-3-{[(4-methylpiperazin-1-yl)acetyl]amino}-4-(trifluoromethoxy)-benzamide]
